One data set deals with T1, hTRPM8 (Homo sapiens, UniProt Q7Z2W7).
T1 construct: expressed in transfected cells; host or cells: HEK293, transient transfection, pMO vector
The data set is described as follows: whole-cell patch clamp selectivity, HEK 293 cells overexpressing hTRPM8. Format: cell-based. The conditions noted are these: HEK293, with agonist, solutions without Ca2+, read-out: % of the current of hTRPM8 inhibited. The method, then: (§1) Human embryonic kidney 293 (HEK293; catalog number CRL-1573) cells were cultured in Dulbecco's modified Eagle's medium (Invitrogen) supplemented with 10% fetal bovine serum and 1% penicillin-streptomycin at 37° C. and 5% CO2. Constructs cloned in pMO (a pcDNA3-modified vector) were co-transfected with GFP-pMO, using Lipofectamine 2000 (Invitrogen) according to the manufacturer's instructions. Macroscopic currents in the whole-cell patch clamp configuration were recorded 18-24 h post-transfection. The extracellular solution contained 140 mM NaCl, 6 mM KCl, 2 mM MgCl2, 10 mM HEPES, and 10 mM glucose (pH 7.4). Pipettes were made of borosilicate glass (outer diameter, 1.5 mm; inner diameter, 1.10 mm; Sutter Instruments) and fire-polished with a resistance between 2.8 and 4.0 megaohms when filled with an intracellular solution that contained 140 mM CsCl, 5 mM EGTA, and 10 mM HEPES, pH 7.2. Currents were recorded with a Multiclamp 700B amplifier (Molecular Devices) using a 1-s ramp from −100 to 100 mV. […] Data were acquired with a sampling rate of 20 kHz, low-pass filtered (10 kHz), and analyzed offline using Clampfit v10.4.2.0 (Molecular Devices). […]
For orientation: In patch-clamp work, channel activity is measured electrically.

For another data set, the target named is T2, hTRPA1 (Homo sapiens, UniProt O75762).
T2 construct: expressed in transfected cells; host or cells: HEK293, transient transfection, pMO vector
T2 sequence (O75762 whole entry): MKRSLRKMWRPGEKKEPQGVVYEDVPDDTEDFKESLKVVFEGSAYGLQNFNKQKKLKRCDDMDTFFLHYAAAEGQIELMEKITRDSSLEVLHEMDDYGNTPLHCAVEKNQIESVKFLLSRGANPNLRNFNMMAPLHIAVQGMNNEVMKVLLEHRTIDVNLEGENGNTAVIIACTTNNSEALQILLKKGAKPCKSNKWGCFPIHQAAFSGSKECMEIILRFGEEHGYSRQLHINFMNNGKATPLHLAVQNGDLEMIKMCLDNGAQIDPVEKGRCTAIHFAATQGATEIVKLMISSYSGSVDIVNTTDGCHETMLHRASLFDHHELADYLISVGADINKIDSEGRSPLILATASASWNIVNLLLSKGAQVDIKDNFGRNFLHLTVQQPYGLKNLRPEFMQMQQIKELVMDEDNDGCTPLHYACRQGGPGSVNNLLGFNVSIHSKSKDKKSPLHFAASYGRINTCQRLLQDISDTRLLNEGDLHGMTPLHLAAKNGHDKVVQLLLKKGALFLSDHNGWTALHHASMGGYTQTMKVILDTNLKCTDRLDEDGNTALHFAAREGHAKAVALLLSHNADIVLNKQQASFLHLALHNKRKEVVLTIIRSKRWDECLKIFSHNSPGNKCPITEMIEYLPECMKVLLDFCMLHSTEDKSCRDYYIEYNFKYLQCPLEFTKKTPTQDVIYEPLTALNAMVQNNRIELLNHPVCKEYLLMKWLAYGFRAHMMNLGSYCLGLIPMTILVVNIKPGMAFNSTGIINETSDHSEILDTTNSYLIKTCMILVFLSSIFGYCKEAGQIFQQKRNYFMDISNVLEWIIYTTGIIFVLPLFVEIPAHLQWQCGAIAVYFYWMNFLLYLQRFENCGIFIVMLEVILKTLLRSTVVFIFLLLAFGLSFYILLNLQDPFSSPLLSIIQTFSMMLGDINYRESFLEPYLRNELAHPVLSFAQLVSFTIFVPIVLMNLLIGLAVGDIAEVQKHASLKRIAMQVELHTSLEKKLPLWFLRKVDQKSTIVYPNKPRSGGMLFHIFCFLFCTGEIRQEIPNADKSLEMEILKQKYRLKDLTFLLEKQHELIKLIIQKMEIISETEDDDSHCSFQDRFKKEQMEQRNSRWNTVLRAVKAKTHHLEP
The data set is described as follows: whole-cell patch clamp selectivity, HEK 293 cells overexpressing hTRPA1. In kind it is cell-based. The note with it: HEK293, with agonist, solutions without Ca2+, read-out: % of the current of hTRPA1 inhibited. The method, then: as §1

For another data set, the target named is T3, TRPC3 (Homo sapiens, UniProt Q13507).
T3 sequence (Q13507 1-921): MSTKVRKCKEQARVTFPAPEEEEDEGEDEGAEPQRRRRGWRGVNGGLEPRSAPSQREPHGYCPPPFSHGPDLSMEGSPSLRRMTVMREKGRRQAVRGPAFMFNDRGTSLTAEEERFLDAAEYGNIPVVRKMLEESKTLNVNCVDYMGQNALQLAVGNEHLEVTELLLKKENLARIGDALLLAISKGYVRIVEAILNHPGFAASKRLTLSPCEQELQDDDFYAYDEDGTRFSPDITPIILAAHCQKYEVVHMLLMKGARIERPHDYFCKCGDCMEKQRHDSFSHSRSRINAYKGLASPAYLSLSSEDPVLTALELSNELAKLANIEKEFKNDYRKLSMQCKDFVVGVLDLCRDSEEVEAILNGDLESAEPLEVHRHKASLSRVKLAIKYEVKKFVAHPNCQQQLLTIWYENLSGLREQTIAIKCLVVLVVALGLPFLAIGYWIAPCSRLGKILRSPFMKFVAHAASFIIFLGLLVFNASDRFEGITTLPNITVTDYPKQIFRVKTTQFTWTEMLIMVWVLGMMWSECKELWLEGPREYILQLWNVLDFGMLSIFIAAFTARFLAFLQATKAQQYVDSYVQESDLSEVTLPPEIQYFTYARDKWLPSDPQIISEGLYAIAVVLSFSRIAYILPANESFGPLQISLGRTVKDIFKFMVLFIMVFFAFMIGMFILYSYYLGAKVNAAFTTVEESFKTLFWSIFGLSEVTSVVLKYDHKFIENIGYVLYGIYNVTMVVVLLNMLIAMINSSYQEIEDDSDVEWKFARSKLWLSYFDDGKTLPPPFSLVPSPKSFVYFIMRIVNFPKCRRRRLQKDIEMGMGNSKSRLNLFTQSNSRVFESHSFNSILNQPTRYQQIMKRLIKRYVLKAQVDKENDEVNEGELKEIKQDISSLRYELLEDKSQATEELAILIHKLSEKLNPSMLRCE
Briefly: whole-cell patch clamp of HEK293 cells transfected with hTRPC3, currents activated by GSK1702934A. Also on record: expressed in transfected cells; host or cells: HEK293 (CRL-1573), transient transfection, pMO vector. Format: cell-based. The method, boiled down: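 Whole-cell patch clamp on HEK293 cells co-transfected with hTRPC3 and GFP, recorded 18-24 h post-transfection. Bath held 140 mM NaCl, pH 7.4; pipette held 140 mM CsCl/5 mM EGTA, pH 7.2. Currents came from 1-s ramps −100 to 100 mV with GSK1702934A; compounds screened at 10 μM, IC50 from single-cell dose points.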

Data set [1] can be described thus: metabolic stability in mouse liver microsomes. In kind it is in vitro ADME. The note with it: mouse, microsomes. The method, then:
The metabolic stability of compound 22 was tested prior to the next phase of in vivo study. […] The maximum tolerated dose (MTD) study was subsequently performed to investigate its in vivo toxicity (FIGS. 4A and 4B). The second major limitation of Pyr3 is its toxicity due to its alkylating tail moiety. While replacing only the fast-metabolizing head ester group in Pyr3 with a stable amide (compound 79) improved metabolic stability, a single IP injection of compound 79 at 200 mg/kg killed all mice within 24 h.

Where two headings read alike, the source gives them in different places.

T1 sequence (Q7Z2W7 whole entry): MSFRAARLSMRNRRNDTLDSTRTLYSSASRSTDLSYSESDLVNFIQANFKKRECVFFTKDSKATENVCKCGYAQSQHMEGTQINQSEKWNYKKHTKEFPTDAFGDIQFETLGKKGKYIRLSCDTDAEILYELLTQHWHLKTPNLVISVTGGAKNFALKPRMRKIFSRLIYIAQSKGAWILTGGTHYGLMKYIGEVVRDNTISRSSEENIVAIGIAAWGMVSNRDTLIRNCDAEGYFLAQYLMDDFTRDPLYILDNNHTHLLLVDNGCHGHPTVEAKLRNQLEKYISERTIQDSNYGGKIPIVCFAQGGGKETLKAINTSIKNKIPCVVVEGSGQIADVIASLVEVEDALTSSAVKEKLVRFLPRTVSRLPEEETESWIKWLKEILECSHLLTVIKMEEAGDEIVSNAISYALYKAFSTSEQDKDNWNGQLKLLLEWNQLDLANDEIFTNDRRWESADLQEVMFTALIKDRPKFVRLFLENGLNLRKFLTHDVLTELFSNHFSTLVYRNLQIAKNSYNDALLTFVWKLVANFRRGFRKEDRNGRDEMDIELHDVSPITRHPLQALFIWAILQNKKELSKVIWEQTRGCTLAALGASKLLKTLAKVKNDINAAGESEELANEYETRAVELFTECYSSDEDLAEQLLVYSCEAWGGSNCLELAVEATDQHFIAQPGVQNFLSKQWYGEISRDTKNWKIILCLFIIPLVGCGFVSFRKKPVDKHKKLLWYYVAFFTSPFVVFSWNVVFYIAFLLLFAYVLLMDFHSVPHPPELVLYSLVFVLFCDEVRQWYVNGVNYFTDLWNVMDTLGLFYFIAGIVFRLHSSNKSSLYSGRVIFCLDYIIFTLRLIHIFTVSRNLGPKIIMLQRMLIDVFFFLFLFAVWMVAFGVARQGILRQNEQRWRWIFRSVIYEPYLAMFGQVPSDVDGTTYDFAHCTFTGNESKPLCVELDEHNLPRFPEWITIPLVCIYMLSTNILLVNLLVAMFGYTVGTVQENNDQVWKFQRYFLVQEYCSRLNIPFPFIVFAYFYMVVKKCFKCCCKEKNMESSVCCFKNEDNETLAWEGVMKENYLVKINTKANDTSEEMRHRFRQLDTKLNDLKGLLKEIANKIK

Usually IC50 stands for the point on the concentration scale where inhibition reaches its midpoint. As a reminder, the half-life is the time needed for the level to fall by half in the phase considered. Read a low half-life as fast loss. Take `CCNC(=O)c1cnn(-c2ccc(-n3ccc(Cl)c(Cl)c3=O)cc2)c1C(F)(F)F` [Compound 22]: the inhibition at 10 µM is less than 5% at hTRPM8; less than 5% at hTRPA1; 89 ± 1.14% on TRPC3 (10 μM compound in presence of agonist GSK1702934A, HEK293 whole-cell peak current, read-out: hTRPC3 % Inhibition at 10 μM (mean ± SEM)). Further, the IC50 on TRPC3 (agonist GSK1702934A, HEK293 whole-cell patch clamp, read-out: hTRPC3 IC50 (μM, mean ± SEM)) was 0.37 ± 0.03 µM; on TRPC3 (same value expressed in ng/ml, read-out: TRPC3 IC50 displayed in FIG. 6 (converted)), 0.51 µM; on TRPC3 (value shown in brain concentration figure, read-out: TRPC3 IC50 displayed in FIG. 6 (converted)), 0.51 µM. Moreover, in data set [1], the half-life was greater than 4 h.

Values taken from US20230265068A1, “TRANSIENT RECEPTOR POTENTIAL CANONICAL 3 INHIBITORS AND METHODS OF USE THEREOF” (University of Tennessee Research Foundation, priority 2020, published 2023).
